According to US20100120700A1, “METHODS AND COMPOSITIONS FOR TREATING CERVICAL CANCER” (priority 2000, published 2010):
Values joined by “and” are separate entries in the source; they are usually repeats but may differ in a detail not shown here. Equal values may be shown once.

Assays:
Test in all cases: G assay PDZ-PL binding
[1] = target: T1, PSD95 domain 1 (Homo sapiens, UniProt P78352); settings: peptide 10 uM, protein 5
T1 construct: made in house; host or cells: E. coli (DH5alpha, BL21 or JM109), vector pGEX-3X
T1 sequence (P78352 62-156): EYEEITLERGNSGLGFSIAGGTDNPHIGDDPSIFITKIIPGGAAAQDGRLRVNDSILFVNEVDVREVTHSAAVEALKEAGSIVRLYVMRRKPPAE
Procedure, shortened: (§1)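 Plate ELISA: anti-GST antibody coat, BSA block, then GST/PDZ fusion (GST alone as negative control). Biotinylated PL peptide 20 uM (10 uM in G′ variant) added, 10 min 4 °C plus 20 min 25 °C; streptavidin-HRP, TMB, absorbance 450 nm.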

[2] = target: T2, Densin domain 1 (Homo sapiens, UniProt Q96NW7); settings: peptide 10 uM, protein 5
T2 construct: made in house; host or cells: E. coli (DH5alpha or BL-21)
T2 sequence (Q96NW7 1429-1537): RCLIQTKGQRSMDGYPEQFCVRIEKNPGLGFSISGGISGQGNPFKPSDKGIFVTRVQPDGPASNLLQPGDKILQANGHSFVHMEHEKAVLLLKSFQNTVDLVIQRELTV
Procedure, shortened: as §1

[3] = target: T3, ELFIN 1 domain 1 (Homo sapiens, UniProt O00151, G21R); settings: peptide 10 uM, protein 5
T3 construct: made in house; host or cells: E. coli (DH5alpha, BL21 or JM109), vector pGEX-3X
T3 sequence (O00151 2-93 G21R): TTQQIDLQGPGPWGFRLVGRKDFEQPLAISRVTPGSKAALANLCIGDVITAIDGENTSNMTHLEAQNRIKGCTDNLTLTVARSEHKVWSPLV
Procedure, shortened: as §1

[4] = target: T4, SSTRIP domain 1 (Homo sapiens, UniProt Q9Y566); settings: peptide 10 uM, protein 5
T4 construct: made in house; host or cells: E. coli (DH5alpha, BL21 or JM109)
T4 sequence (Q9Y566 with tags, fused parts or gaps): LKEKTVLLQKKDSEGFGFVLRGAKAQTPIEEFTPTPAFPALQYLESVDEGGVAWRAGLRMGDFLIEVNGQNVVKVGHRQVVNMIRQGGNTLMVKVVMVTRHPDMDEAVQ
Procedure, shortened: as §1

[5] = target: T5, Shank 3 domain 1 (Homo sapiens, UniProt Q9BYB0); settings: peptide 10 uM, protein 5
T5 construct: made in house; host or cells: E. coli (DH5alpha or BL-21)
T5 sequence (Q9BYB0 638-747): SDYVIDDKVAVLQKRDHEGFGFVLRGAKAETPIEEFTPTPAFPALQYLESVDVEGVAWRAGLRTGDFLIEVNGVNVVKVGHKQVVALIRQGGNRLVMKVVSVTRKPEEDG
Procedure, shortened: as §1

[6] = target: T6, AIPC domain 1 (Homo sapiens, UniProt O15018); settings: peptide 10 uM, protein 5
T6 construct: made in house; host or cells: E. coli (DH5alpha, BL21 or JM109), vector pGEX-3X
T6 sequence (O15018 with tags, fused parts or gaps): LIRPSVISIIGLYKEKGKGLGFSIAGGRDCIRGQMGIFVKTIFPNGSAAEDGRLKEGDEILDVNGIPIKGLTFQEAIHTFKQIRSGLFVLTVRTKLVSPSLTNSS
Procedure, shortened: as §1

[7] = target: T7, HEMBA 1003117 #226.2 domain 1 (Homo sapiens, UniProt Q96JH8); settings: peptide 10 uM, protein 5
T7 construct: made in house; host or cells: E. coli (DH5alpha, BL21 or JM109)
T7 sequence (Q96JH8 969-1068): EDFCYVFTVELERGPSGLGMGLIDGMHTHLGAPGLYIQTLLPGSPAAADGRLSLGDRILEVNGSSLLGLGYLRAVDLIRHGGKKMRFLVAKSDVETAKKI
Procedure, shortened: as §1

[8] = target: T8, KIAA1526 #119.1 domain 1 (Homo sapiens, UniProt Q9P202); settings: peptide 10 uM, protein 5
T8 construct: made in house; host or cells: E. coli (DH5alpha or BL-21)
T8 sequence (Q9P202 130-232): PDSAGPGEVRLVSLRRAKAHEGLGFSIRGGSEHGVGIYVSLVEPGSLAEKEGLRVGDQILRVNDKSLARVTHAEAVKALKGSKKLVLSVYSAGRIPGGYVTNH
Procedure, shortened: as §1

[9] = target: T9, Magi2 domain 1 (Homo sapiens, UniProt Q86UL8); settings: vs GST only well, peptide 10 uM, protein 5
T9 construct: made in house; host or cells: E. coli (DH5alpha, BL21 or JM109)
T9 sequence (Q86UL8 408-511): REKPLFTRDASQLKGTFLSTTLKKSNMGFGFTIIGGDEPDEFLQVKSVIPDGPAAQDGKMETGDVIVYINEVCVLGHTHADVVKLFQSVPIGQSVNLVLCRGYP
Procedure, shortened: as §1

[10] = target: T10, DLG2 domain 1 (Homo sapiens, UniProt Q15700); settings: peptide 10 uM, protein 5
T10 construct: made in house; host or cells: E. coli (DH5alpha, BL21 or JM109), vector pGEX-3X
Procedure, shortened: as §1

[11] = target: T11, GTPase domain 1 (Homo sapiens, UniProt Q96FS4); settings: peptide 10 uM, protein 5
T11 construct: made in house; host or cells: E. coli (DH5alpha, BL21 or JM109)
T11 sequence (Q96FS4 680-767): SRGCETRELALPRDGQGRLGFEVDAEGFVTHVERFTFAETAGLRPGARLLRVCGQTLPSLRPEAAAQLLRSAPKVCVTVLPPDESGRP
Procedure, shortened: as §1

[12] = target: T12, Magi2 domain 3 (Homo sapiens, UniProt Q86UL8); settings: peptide 10 uM, protein 5
T12 construct: made in house; host or cells: E. coli (DH5alpha or BL-21)
T12 sequence (Q86UL8 with tags, fused parts or gaps): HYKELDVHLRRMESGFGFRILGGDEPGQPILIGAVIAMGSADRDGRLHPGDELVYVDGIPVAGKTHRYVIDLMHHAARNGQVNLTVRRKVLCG
Procedure, shortened: as §1

[13] = target: T13, KIAA1634 domain 1 (Homo sapiens, UniProt Q5TCQ9); settings: peptide 10 uM, protein 5
T13 construct: made in house; host or cells: E. coli (DH5alpha, BL21 or JM109)
T13 sequence (Q5TCQ9 401-502): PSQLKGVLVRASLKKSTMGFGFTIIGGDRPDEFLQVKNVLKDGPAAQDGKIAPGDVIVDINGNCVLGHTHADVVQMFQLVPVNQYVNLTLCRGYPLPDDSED
Procedure, shortened: as §1

[14] = target: T14, MAGI 1 domain 2 (Homo sapiens, UniProt Q96QZ7)
T14 construct: made in house; host or cells: E. coli (DH5alpha, BL21 or JM109)
T14 sequence (Q96QZ7 463-566): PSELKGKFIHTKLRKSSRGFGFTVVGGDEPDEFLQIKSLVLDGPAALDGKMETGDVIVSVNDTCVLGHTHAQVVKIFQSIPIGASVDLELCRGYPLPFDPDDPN
Procedure, shortened: as §1

Substance: 20 mer peptide corresponding to the C-terminus of HPV16 E6 (PDZ ligand), biotinylated in binding assays; ends SSRTRRETQL (SEQ ID NO: 13) [HPV E6 #16]
- Ave OD ([1]; A450 nm): 0.942
- OD S/N ([1]; vs GST only well): 4.81
- Ave OD ([2]; A450 nm): 0.4205 and 0.3505
- OD S/N ([2]; vs GST only well): 1.96 and 1.82
- Ave OD ([3]; A450 nm): 0.66
- OD S/N ([3]; vs GST only well): 3.39
- Ave OD ([4]; A450 nm): 0.467
- OD S/N ([4]; vs GST only well): 3.28
- Ave OD ([5]; A450 nm): 0.396
- OD S/N ([5]; vs GST only well): 2.61
- Ave OD ([6]; A450 nm): 0.5595
- OD S/N ([6]; vs GST only well): 2.30
- Ave OD ([7]; A450 nm): 0.36 and 0.477
- OD S/N ([7]; vs GST only well): 1.66 and 2.27
- Ave OD ([8]; A450 nm): 0.425
- OD S/N ([8]; vs GST only well): 1.38
- OD S/N [9]: 11.59 and 7.23
- Ave OD ([10]; A450 nm): 0.793
- OD S/N ([10]; vs GST only well): 3.59
- Ave OD ([11]; A450 nm): 0.3505
- OD S/N ([11]; vs GST only well): 1.12
- Ave OD ([12]; A450 nm): 0.4165 and 0.359
- OD S/N ([12]; vs GST only well): 1.98 and 1.65
- Ave OD ([13]; A450 nm): 3.465 and 3.336
- OD S/N ([13]; vs GST only well): 19.04 and 19.45
- Ave OD ([14]; A450 nm, MAGI 1 domain 2, peptide 10 uM, protein 5): 4.1125
- binding to MAGI-1 second PDZ domain (qualitative) ([14]; G assay / Matrix TM assay, called MAGI 1 domain 1 in b521 (nomenclature b497)): bound with the highest relative affinity
- OD S/N ([14]; vs GST only well, MAGI 1 domain 2, peptide 10 uM, protein 5): 19.54
